Assays:
Test in all cases: relative viability (nuclei count vs DMSO), 5 days (fraction); higher = more cells survive
EPLC-272H = system: EPLC-272H
Outline: (§1)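 Cells from lung cancer lines were seeded into 1536-well plates and, one day later, dosed by pin tool. Treatments were either a single drug or a fixed dose of an anchor drug with five library-drug doses (not always all listed) in √10 steps. After 5 days, nuclei were stained in a one-step fixation (final 0.05% Triton X-100, 1% formaldehyde, 1 ug/ml Hoechst) and counted on 4× images, and relative viability is the treated-to-vehicle nuclei ratio, as the median of duplicate plates.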

PC-14 = system: PC-14
Outline: as §1

HOP-62 = system: HOP-62
Outline: as §1

NCI-H1915 = system: NCI-H1915
Outline: as §1

NCI-H2347 = system: NCI-H2347
Outline: as §1

NCI-H1355 = system: NCI-H1355
Outline: as §1

LU99A = system: LU99A
Outline: as §1

LC-2-ad = system: LC-2-ad
Outline: as §1

UMC-11 = system: UMC-11
Outline: as §1

NCI-H2085 = system: NCI-H2085
Outline: as §1

NCI-H1651 = system: NCI-H1651
Outline: as §1

NCI-H1993 = system: NCI-H1993
Outline: as §1

HARA = system: HARA
Outline: as §1

COR-L23 = system: COR-L23
Outline: as §1

NCI-H838 = system: NCI-H838
Outline: as §1

HCC-44 = system: HCC-44
Outline: as §1

SW 1573 = system: SW 1573
Outline: as §1

HCC-15 = system: HCC-15
Outline: as §1

NCI-H2023 = system: NCI-H2023
Outline: as §1

NCI-H2126 = system: NCI-H2126
Outline: as §1

O=c1cc(N2CCOCC2)oc2c(-c3cccc4c3sc3ccccc34)cccc12 + CC1(C)CCC(c2ccc(Cl)cc2)=C(CN2CCN(c3ccc(C(=O)NS(=O)(=O)c4ccc(N[C@H](CCN5CCOCC5)CSc5ccccc5)c(S(=O)(=O)C(F)(F)F)c4)cc3)CC2)C1 [Navitoclax] (partner 0.5 µM)
relative viability (EPLC-272H; first compound 0.01 µM): 1.11 | relative viability (EPLC-272H; first compound 0.03162 µM): 1.05 | relative viability (EPLC-272H; first compound 0.3162 µM): 1.04 | relative viability (EPLC-272H; first compound 1 µM): 1.08 | relative viability (PC-14; first compound 0.01 µM): 1.09 | relative viability (PC-14; first compound 0.03162 µM): 0.95 | relative viability (PC-14; first compound 0.1 µM): 1.08 | relative viability (PC-14; first compound 0.3162 µM): 1.07 | relative viability (PC-14; first compound 1 µM): 1.03 | relative viability (HOP-62; first compound 0.01 µM): 0.935 | relative viability (HOP-62; first compound 0.03162 µM): 1.08 | relative viability (HOP-62; first compound 0.1 µM): 1.02 | relative viability (HOP-62; first compound 0.3162 µM): 0.854 | relative viability (HOP-62; first compound 1 µM): 1.07 | relative viability (NCI-H1915; first compound 0.01 µM): 0.792 | relative viability (NCI-H1915; first compound 0.03162 µM): 0.788 | relative viability (NCI-H1915; first compound 0.1 µM): 0.809 | relative viability (NCI-H1915; first compound 0.3162 µM): 0.779 | relative viability (NCI-H1915; first compound 1 µM): 0.824 | relative viability (NCI-H2347; first compound 0.01 µM): 1.11 | relative viability (NCI-H2347; first compound 0.03162 µM): 0.804 | relative viability (NCI-H2347; first compound 0.1 µM): 0.844 | relative viability (NCI-H2347; first compound 0.3162 µM): 0.754 | relative viability (NCI-H2347; first compound 1 µM): 0.897 | relative viability (NCI-H1355; first compound 0.01 µM): 0.956 | relative viability (NCI-H1355; first compound 0.03162 µM): 0.981 | relative viability (NCI-H1355; first compound 0.3162 µM): 0.941 | relative viability (NCI-H1355; first compound 1 µM): 0.891 | relative viability (LU99A; first compound 0.01 µM): 0.887 | relative viability (LU99A; first compound 0.03162 µM): 0.955 | relative viability (LU99A; first compound 0.1 µM): 0.884 | relative viability (LU99A; first compound 0.3162 µM): 0.773 | relative viability (LU99A; first compound 1 µM): 0.898 | relative viability (LC-2-ad; first compound 0.01 µM): 0.646 | relative viability (LC-2-ad; first compound 0.1 µM): 0.543 | relative viability (LC-2-ad; first compound 0.3162 µM): 0.546 | relative viability (LC-2-ad; first compound 1 µM): 0.386 | relative viability (UMC-11; first compound 0.01 µM): 0.302 | relative viability (UMC-11; first compound 0.03162 µM): 0.339 | relative viability (UMC-11; first compound 0.1 µM): 0.255 | relative viability (UMC-11; first compound 0.3162 µM): 0.333 | relative viability (UMC-11; first compound 1 µM): 0.343 | relative viability (NCI-H2085; first compound 0.01 µM): 1.08 | relative viability (NCI-H2085; first compound 0.03162 µM): 1.19 | relative viability (NCI-H2085; first compound 0.1 µM): 1.17 | relative viability (NCI-H2085; first compound 0.3162 µM): 1.08 | relative viability (NCI-H2085; first compound 1 µM): 1.02 | relative viability (NCI-H1651; first compound 0.01 µM): 1.07 | relative viability (NCI-H1651; first compound 0.03162 µM): 0.997 | relative viability (NCI-H1651; first compound 0.1 µM): 1.01 | relative viability (NCI-H1651; first compound 0.3162 µM): 0.991 | relative viability (NCI-H1651; first compound 1 µM): 0.927 | relative viability (NCI-H1993; first compound 0.01 µM): 1.02 | relative viability (NCI-H1993; first compound 0.03162 µM): 0.953 | relative viability (NCI-H1993; first compound 0.1 µM): 0.976 | relative viability (NCI-H1993; first compound 0.3162 µM): 0.921 | relative viability (NCI-H1993; first compound 1 µM): 0.887 | relative viability (HARA; first compound 0.01 µM): 1.11 | relative viability (HARA; first compound 0.03162 µM): 1.13 | relative viability (HARA; first compound 0.1 µM): 1.15 | relative viability (HARA; first compound 0.3162 µM): 1.17 | relative viability (HARA; first compound 1 µM): 1.14 | relative viability (COR-L23; first compound 0.01 µM): 1 | relative viability (COR-L23; first compound 0.03162 µM): 1.02 | relative viability (COR-L23; first compound 0.1 µM): 0.976 | relative viability (COR-L23; first compound 0.3162 µM): 1.05 | relative viability (COR-L23; first compound 1 µM): 0.98 | relative viability (NCI-H838; first compound 0.01 µM): 1.17 | relative viability (NCI-H838; first compound 0.03162 µM): 1.13 | relative viability (NCI-H838; first compound 0.1 µM): 1.13 | relative viability (NCI-H838; first compound 0.3162 µM): 1.1 | relative viability (NCI-H838; first compound 1 µM): 1.1 | relative viability (HCC-44; first compound 0.01 µM): 0.854 | relative viability (HCC-44; first compound 0.03162 µM): 0.94 | relative viability (HCC-44; first compound 0.1 µM): 0.963 | relative viability (HCC-44; first compound 0.3162 µM): 0.887 | relative viability (HCC-44; first compound 1 µM): 0.931 | relative viability (SW 1573; first compound 0.01 µM): 1.04 | relative viability (SW 1573; first compound 0.03162 µM): 1 | relative viability (SW 1573; first compound 0.1 µM): 1.15 | relative viability (SW 1573; first compound 0.3162 µM): 1.06 | relative viability (SW 1573; first compound 1 µM): 0.832 | relative viability (HCC-15; first compound 0.01 µM): 0.788 | relative viability (HCC-15; first compound 0.03162 µM): 0.706 | relative viability (HCC-15; first compound 0.1 µM): 0.69 | relative viability (HCC-15; first compound 0.3162 µM): 0.691 | relative viability (HCC-15; first compound 1 µM): 0.667 | relative viability (NCI-H2023; first compound 0.01 µM): 1.07 | relative viability (NCI-H2023; first compound 0.03162 µM): 0.912 | relative viability (NCI-H2023; first compound 0.1 µM): 1 | relative viability (NCI-H2023; first compound 0.3162 µM): 0.99 | relative viability (NCI-H2023; first compound 1 µM): 1.01 | relative viability (NCI-H2126; first compound 0.01 µM): 0.845 | relative viability (NCI-H2126; first compound 0.03162 µM): 0.839 | relative viability (NCI-H2126; first compound 0.1 µM): 0.868 | relative viability (NCI-H2126; first compound 0.3162 µM): 0.889 | relative viability (NCI-H2126; first compound 1 µM): 0.794

Source: the supplement of paper PMC10307832
